Consider eleven molecules from ChEMBL document CHEMBL1201862, “PubChem BioAssay data set” (2004).

Test systems include HOP-62; CCRF-CEM; DU-145; Hs-578T; NCI-H460; SK-MEL-5; U-251; HCT-15; SK-MEL-28; MOLT-4; KM12; SF-539; UACC-62; UO-31; RXF 393; NCI/ADR-RES; 786-0; MCF7; M14; SR.
Common to all, as to test: NCI-60 cell line screen, 48 h

“And” between values parts separate entries of the source, which are not always exact repeats. Identical values can stand only once.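 1) Cells in 96-well plates. 2) Compound, 48 h, 5 concentrations. 3) Linear interpolation between surrounding doses. 4) Unreached endpoint = highest concentration. GI50 marks 50% less growth.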 The source made the active and inactive calls. Rule as the data show it: active = GI50 up to about 1.1 µM and inactive = higher.

As for `COc1cc2c(c(OC)c1OC)C(=O)[C@H](O)[C@H]2NC(N)=O`, the GI50 with HOP-62 was > 100 µM (inactive); with CCRF-CEM it was > 100 µM (inactive); in the test on DU-145 it was > 100 µM (inactive); in the test on Hs-578T, 60 µM (inactive); in the test on NCI-H460, 66.8 µM (inactive); in the test with SK-MEL-5, 40.7 µM (inactive). Moreover, the GI50 in the test on U-251 was 44.2 µM (inactive); in the test with HCT-15 it was 27.7 µM; in the test with SK-MEL-28 it was > 100 µM (inactive); in the test with MOLT-4 it was 95.9 µM (inactive); with KM12, > 100 µM (inactive); in the test on SF-539, > 100 µM (inactive). The GI50 is 17.6 µM (inactive) with UACC-62; > 100 µM (inactive) in the test on UO-31; 47.8 µM (inactive) in the test with RXF 393; > 100 µM (inactive) with NCI/ADR-RES; > 100 µM (inactive) with 786-0; > 100 µM (inactive) with MCF7. The GI50 in the test with M14 is 47.6 µM (inactive).

On to `C=CC(C)(O)CCC1C(=C)C(O)CC2C(C)(C)CCCC12C` (stereo not given), for which the GI50 was 20.6 µM (inactive) with HOP-62; 18.5 µM (inactive) in the test with CCRF-CEM; 18.2 µM (inactive) in the test on DU-145; 22.6 µM (inactive) in the test with Hs-578T; 16.9 µM (inactive) in the test with NCI-H460; 16 µM (inactive) in the test with SK-MEL-5. Moreover, the GI50 with U-251 is 15.5 µM (inactive); in the test with HCT-15, 17.6 µM; in the test on SK-MEL-28, 18.7 µM (inactive); with MOLT-4, 14.2 µM (inactive); in the test with KM12 it was 21.1 µM (inactive); in the test with SF-539 it was 17.9 µM (inactive). Besides, the GI50 is 16 µM (inactive) in the test on UACC-62; 15.2 µM (inactive) in the test with UO-31; 14.3 µM (inactive) in the test with RXF 393; 18.5 µM (inactive) in the test with NCI/ADR-RES; 18.6 µM (inactive) in the test on 786-0; 23.2 µM (inactive) in the test with MCF7. For the same molecule, the GI50 with M14 was 16.3 µM (inactive).

Turning to `CCOC(=O)c1sc2c(c1OC(=O)c1cc(OC)c(OC)c(OC)c1)c(=O)n(-c1ccccc1)c(=S)n2-c1ccccc1`, the GI50 with HOP-62 is > 100 µM (inactive); in the test with CCRF-CEM it was 17.5 µM (inactive); in the test on DU-145 it was > 100 µM (inactive); in the test with Hs-578T, 51.2 µM (inactive); in the test on NCI-H460, 51.5 µM (inactive); in the test on SK-MEL-5, > 100 µM (inactive). Further, the GI50 with U-251 is 49.8 µM (inactive); with HCT-15 it was 47.3 µM; in the test with SK-MEL-28, > 100 µM (inactive); in the test on MOLT-4 it was 28.4 µM (inactive); in the test with KM12, > 100 µM (inactive); with SF-539 it was > 100 µM (inactive). Further, the GI50 in the test with UACC-62 was 51.8 µM (inactive); with RXF 393 it was > 100 µM (inactive); in the test with NCI/ADR-RES, 75.3 µM (inactive); in the test with 786-0 it was 84.1 µM (inactive); in the test with MCF7, > 100 µM (inactive); with M14 it was 40.5 µM (inactive).

As to `COc1ccc2c(c1)nc1n2C(c2c(F)cccc2Cl)SC1` (stereo not given), the GI50 with CCRF-CEM was 3.1 µM (inactive); with DU-145, 1.49 µM (inactive); in the test with Hs-578T, 1.69 µM (inactive); in the test on NCI-H460, 3.68 µM (inactive); with SK-MEL-5, 3.17 µM (inactive); in the test on U-251, 5.08 µM (inactive). Further, the GI50 with HCT-15 was 3.03 µM; in the test on SK-MEL-28, 5 µM (inactive); in the test on KM12 it was 2.76 µM (inactive); with SF-539, 3.25 µM (inactive); in the test on UACC-62, 7.26 µM (inactive); in the test with UO-31, > 20.2 µM (inactive). Besides, the GI50 is 1.56 µM (inactive) with NCI/ADR-RES, 5.68 µM (inactive) with 786-0, 3.66 µM (inactive) in the test with MCF7 and 3.9 µM (inactive) with M14.

Regarding `CNC(=S)NN=C1NCCCN1`, the GI50 with HOP-62, with CCRF-CEM, with Hs-578T, in the test with NCI-H460, with SK-MEL-5 and in the test on U-251 was > 100 µM (inactive) throughout. In addition, the GI50 with HCT-15 is above 100 µM; in the test on SK-MEL-28, > 100 µM (inactive); with MOLT-4 it was > 100 µM (inactive); in the test on KM12 it was > 100 µM (inactive); in the test with SR, > 100 µM (inactive); in the test with SF-539, > 100 µM (inactive). The GI50 with UACC-62, in the test with UO-31, in the test on RXF 393, with NCI/ADR-RES, in the test on 786-0 and in the test on MCF7 was > 100 µM (inactive) throughout. The GI50 with M14 was > 100 µM (inactive).

For the molecule `COc1cccc(NC(=O)c2c(N)n[nH]c2SC)c1`, the GI50 in the test with HOP-62, in the test on CCRF-CEM, with Hs-578T, with NCI-H460, with SK-MEL-5 and in the test on U-251 was > 100 µM (inactive) in each case. Also, the GI50 in the test with HCT-15 is above 100 µM; in the test on SK-MEL-28, > 100 µM (inactive); in the test on MOLT-4, > 100 µM (inactive); in the test on KM12, > 100 µM (inactive); in the test on SF-539, > 100 µM (inactive); with UACC-62 it was > 100 µM (inactive). The GI50 in the test with RXF 393, in the test on NCI/ADR-RES, in the test on 786-0, in the test on MCF7 and with M14 was > 100 µM (inactive) throughout.

Consider `CSC(=S)NN=C1CCCCC1`, for which the GI50 in the test with HOP-62 is 47.3 µM (inactive); with CCRF-CEM it was 26.1 µM (inactive); in the test on DU-145, 27.4 µM (inactive); in the test on Hs-578T it was 59 µM (inactive); in the test with NCI-H460 it was 32.1 µM (inactive); in the test on SK-MEL-5, 16 µM (inactive). Also, the GI50 in the test on U-251 is 29.1 µM (inactive); in the test on HCT-15, 29.9 µM; with SK-MEL-28 it was 37.8 µM (inactive); in the test on MOLT-4 it was 15.7 µM (inactive); with KM12, 28.7 µM (inactive); in the test with SF-539, 24.4 µM (inactive). For the same molecule, the GI50 is 18.7 µM (inactive) in the test with UACC-62; > 100 µM (inactive) in the test on UO-31; > 100 µM (inactive) in the test with RXF 393; 24.7 µM (inactive) in the test on NCI/ADR-RES; 37.3 µM (inactive) with 786-0; 33.8 µM (inactive) in the test with MCF7. Further, the GI50 with M14 was 13.6 µM (inactive).

In the case of `CN1C(=O)C(/C=N/NC(=O)c2cccnc2)C(N)N(C)C1=O` (stereo not given), the GI50 with HOP-62, in the test on CCRF-CEM, in the test with DU-145, in the test on Hs-578T, in the test with NCI-H460 and with SK-MEL-5 was > 100 µM (inactive) throughout. The GI50 with U-251 was > 100 µM (inactive); with HCT-15, above 100 µM; with SK-MEL-28, > 100 µM (inactive); in the test on MOLT-4 it was > 100 µM (inactive); with KM12, > 100 µM (inactive); in the test on UACC-62 it was > 100 µM (inactive). Further, the GI50 in the test on UO-31, in the test with RXF 393, in the test on NCI/ADR-RES, in the test on 786-0, in the test on MCF7 and with M14 was > 100 µM (inactive) throughout.

Consider `Cc1nc2c(Br)cc(Br)cc2c(=O)n1-c1ccccc1NC1OC(CO)C(O)C(O)C1O` (stereo not given), for which the GI50 with HOP-62, with CCRF-CEM, in the test with DU-145, in the test on Hs-578T, with NCI-H460 and in the test on SK-MEL-5 was > 100 µM (inactive) each time. For the same molecule, the GI50 is > 100 µM (inactive) with U-251; above 100 µM in the test with HCT-15; > 100 µM (inactive) with SK-MEL-28; > 100 µM (inactive) and 79.1 µM (inactive) in the test on MOLT-4; > 100 µM (inactive) with KM12; > 100 µM (inactive) with SF-539. Further, the GI50 in the test with UACC-62, in the test on UO-31, in the test with RXF 393, in the test with NCI/ADR-RES, with 786-0 and in the test on MCF7 was > 100 µM (inactive) in each case. In addition, the GI50 in the test with M14 was > 100 µM (inactive).

Regarding `CN(C)CCNC1=CC(=O)c2c(O)ccc(O)c2C1=O`, the GI50 is 16.3 µM (inactive) with HOP-62; 3.94 µM (inactive) in the test with CCRF-CEM; 13.8 µM (inactive) in the test with DU-145; 23.1 µM (inactive) in the test with Hs-578T; 3.3 µM (inactive) in the test with NCI-H460; 1.67 µM (inactive) in the test on SK-MEL-5. Moreover, the GI50 in the test on U-251 is 11.9 µM (inactive); in the test with HCT-15, 4.08 µM; with SK-MEL-28, 12.2 µM (inactive); in the test on MOLT-4, 5.14 µM (inactive); in the test with KM12 it was 6.35 µM (inactive); in the test with SF-539 it was 7.1 µM (inactive). For the same molecule, the GI50 in the test with UACC-62 was 2.33 µM (inactive); in the test with UO-31 it was 12.4 µM (inactive); in the test with RXF 393, 14.2 µM (inactive); in the test on NCI/ADR-RES it was 2.58 µM (inactive); in the test on 786-0, 4.7 µM (inactive); in the test with MCF7, 2.49 µM (inactive). The GI50 in the test with M14 was 3.23 µM (inactive).

Consider `CCOC(=O)C1=C(C)NC(=O)NC1c1ccc(N(CCCl)CCCl)cc1Cl` (stereo not given), for which the GI50 in the test with HOP-62 was 15.2 µM (inactive); with DU-145, 18.2 µM (inactive); in the test with Hs-578T it was 17.1 µM (inactive); in the test on NCI-H460 it was 13 µM (inactive); with SK-MEL-5 it was 14.7 µM (inactive); with U-251, 16.6 µM (inactive). Also, the GI50 is 17.1 µM with HCT-15; 17.6 µM (inactive) in the test with SK-MEL-28; 19.7 µM (inactive) in the test with KM12; 17.2 µM (inactive) in the test with SF-539; 10.6 µM (inactive) in the test with UACC-62; 14.3 µM (inactive) with UO-31. Further, the GI50 with RXF 393 is 17.1 µM (inactive); in the test on NCI/ADR-RES, 16.7 µM (inactive); in the test with 786-0, 15.8 µM (inactive); in the test with MCF7, 13.6 µM (inactive); with M14 it was 15.8 µM (inactive).
